Measured values as given in the NIST ThermoML archive (doi:10.1021/acs.jced.8b01159).
Values joined by “and” are separate entries in the source; they are usually repeats but may differ in a detail not shown here. Equal values may be shown once.

Experiments:
[1] = Liquid, Closed cell (Static) method
[2] = molar heat capacity at constant pressure; conditions: 100 kPa, Liquid, Extra sensitive DSC

CCN1CCOCC1 [4-ethylmorpholine]
Conditions | molar heat capacity at constant pressure [J/K/mol] | vapor or sublimation pressure
[1], 243.11 K | – | 0.01727 kPa
[1], 243.12 K | – | 0.01728 kPa and 0.01725 kPa
[1], 248.15 K | – | 0.0276 kPa and 0.02761 kPa
[1], 253.15 K | – | 0.0431 kPa and 0.04308 kPa
[1], 253.16 K | – | 0.04305 kPa
[1], 258.15 K | – | 0.06592 kPa
[1], 258.16 K | – | 0.06592 kPa and 0.06589 kPa
[1], 263.16 K | – | 0.09902 kPa and 0.09898 kPa and 0.09893 kPa
[1], 268.16 K | – | 0.1459 kPa and 0.146 kPa
[1], 273.17 K | – | 0.2112 kPa and 0.2111 kPa
[1], 278.16 K | – | 0.3025 kPa
[1], 278.17 K | – | 0.3027 kPa and 0.3026 kPa
[1], 283.17 K | – | 0.4244 kPa and 0.4243 kPa
[1], 288.17 K | – | 0.5882 kPa and 0.5883 kPa and 0.5881 kPa
[1], 293.16 K | – | 0.8046 kPa and 0.8045 kPa
[1], 298.17 K | – | 1.086 kPa and 1.085 kPa
[2], 270 K | 198.1 | –
[2], 275 K | 199.6 | –
[2], 280 K | 201.1 | –
[2], 285 K | 202.8 | –
[2], 290 K | 204.5 | –
[2], 295 K | 206.4 | –
[2], 300 K | 208.2 | –
[2], 305 K | 209.9 | –
[2], 310 K | 211.6 | –
[2], 315 K | 213.4 | –
[2], 320 K | 215.5 | –
[2], 325 K | 217.7 | –
[2], 330 K | 219.9 | –
[2], 335 K | 221.9 | –
[2], 340 K | 223.8 | –
[2], 345 K | 225.9 | –
[2], 350 K | 228 | –
[2], 355 K | 230.2 | –
